This experiment concerns the target T1, E. coli CsgA (Escherichia coli, UniProt P28307).
T1 construct: made in house; host or cells: E. coli NEB 3016 slyD::kan, pET11d
Put plainly: In vitro ThioflavinT assay of CsgA aggregation (CsgA ThT Assay). It is filed as biochemical. The note with it: 1005 minutes; for remaining activity at 25 µM: compound 25 μM; for remaining activity at 100 µM: compound 100 μM. In a few lines: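 Purified C-terminal His-tagged CsgA, monomerised by desalting and 30-kDa filtration, at 2-20 μM with 20-40 μM ThT in 50 mM potassium phosphate pH 7.3, 1% DMSO, compounds 3.125-200 uM; room temperature, fluorescence (ex 438/em 495 nm) read every 15 min. Background-subtracted signal expressed as percent inhibition versus vehicle at 6-6.5 or 8-9 h, or as percent control AUC.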

Where [1] appears, read: read-out: CsgA ThT Assay (10 μM CsgA) % Control AUC at 1005 minutes, 25 μM (activity range), CsgA 10 μM, black plates, class symbol.
Where [2] appears, read: read-out: CsgA ThT Assay (10 μM CsgA) % Control AUC at 1005 minutes, 25 μM, mean AUC as % of DMSO control, CsgA 10 μM, black plates.
Where [3] appears, read: read-out: CsgA ThT Assay (10 μM CsgA) % Control AUC at 1005 minutes, 100 μM (activity range), CsgA 10 μM, black plates, class symbol.
Where [4] appears, read: read-out: CsgA ThT Assay (10 μM CsgA) % Control AUC at 1005 minutes, 100 μM, mean AUC as % of DMSO control, CsgA 10 μM, black plates.

Read-outs that look alike come from different tables or passages of the source. Where only a bound is given, the exact number is not on record here.

For 17 compounds, remaining activity results are on record in patent US20230131899A1, “INHIBITORS OF MICROBIALLY INDUCED AMYLOID” (Axial Therapeutics, Inc., priority 2020, published 2023).

T1 sequence (P28307 23-151): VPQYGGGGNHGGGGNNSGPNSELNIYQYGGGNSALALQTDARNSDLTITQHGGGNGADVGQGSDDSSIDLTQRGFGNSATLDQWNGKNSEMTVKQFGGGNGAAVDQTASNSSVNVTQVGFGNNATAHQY

Take `O=C(O)C1CSc2c(-c3cccc(C(F)(F)F)c3)c(Cc3cccc4ccccc34)cc(=O)n21` (racemic) [Compound 011, 7-(naphthalen-1-ylmethyl)-5-oxo-8-(3-(trifluoromethyl)phenyl)-2,3-dihydro-5H-thiazolo[3,2-a]pyridine-3-carboxylic acid]: the remaining activity at 25 µM runs as follows: under setting [1], greater than 60%; under setting [2], 63%. Besides, the remaining activity at 100 µM under setting [3] is greater than 60% and the remaining activity at 100 µM under setting [4] is 62%.
For the compound `CCCN1CC(C(=O)O)n2c(c(-c3cccc(C(F)(F)F)c3)c(Cc3cccc4ccccc34)cc2=O)S1(=O)=O` (racemic) [Compound 016, 8-(naphthalen-1-ylmethyl)-6-oxo-2-propyl-9-(3-(trifluoromethyl)phenyl)-3,4-dihydro-2H,6H-pyrido[1,2-e][1,2,5]thiadiazine-4-carboxylic acid 1,1-dioxide], the remaining activity at 25 µM was 31 to 60% under setting [1] and 48% under setting [2]. Also, the remaining activity at 100 µM under setting [3] fell in the range of 31 to 60% and the remaining activity at 100 µM under setting [4] is 33%.
As to `Nc1c(Cc2cccc3ccccc23)c(-c2cccc(C(F)(F)F)c2)c2n(c1=O)C(C(=O)O)CS2` (racemic) [Compound 020, 6-amino-7-(naphthalen-1-ylmethyl)-5-oxo-8-(3-(trifluoromethyl)phenyl)-2,3-dihydro-5H-thiazolo[3,2-a]pyridine-3-carboxylic acid], the remaining activity at 25 µM by setting is: under setting [1], 11 to 31%; under setting [2], 18%. For the same compound, the remaining activity at 100 µM is less than 10% under setting [3] and 7% under setting [4].
Consider `CCCCCN1CC(C(=O)O)n2c(c(-c3cccc(C(F)(F)F)c3)c(Cc3cccc4ccccc34)cc2=O)S1(=O)=O` (racemic) [Compound 025, 8-(naphthalen-1-ylmethyl)-6-oxo-2-pentyl-9-(3-(trifluoromethyl)phenyl)-3,4-dihydro-2H,6H-pyrido[1,2-e][1,2,5]thiadiazine-4-carboxylic acid 1,1-dioxide], for which the remaining activity at 25 µM is 31 to 60% under setting [1] and 49% under setting [2].
For `O=C(O)C1C[S+]([O-])c2c(-c3cccc(C(F)(F)F)c3)c(Cc3cccc4ccccc34)cc(=O)n21` (racemic) [Compound 027b, 7-(naphthalen-1-ylmethyl)-5-oxo-8-(3-(trifluoromethyl)phenyl)-2,3-dihydro-5H-thiazolo[3,2-a]pyridine-3-carboxylic acid 1-oxide], the remaining activity at 25 µM under setting [1] was greater than 60% and the remaining activity at 25 µM under setting [2] is 108%. The remaining activity at 100 µM reads like this: under setting [3], greater than 60%; under setting [4], 74%.
Take `O=C(O)[C@@H]1CS(=O)(=O)c2c(-c3cccc(C(F)(F)F)c3)c(Cc3cccc4ccccc34)cc(=O)n21` (single isomer, unassigned) [Compound 010a, 7-(naphthalen-1-ylmethyl)-5-oxo-8-(3-(trifluoromethyl)phenyl)-2,3-dihydro-5H-thiazolo[3,2-a]pyridine-3-carboxylic acid 1,1-dioxide]: the remaining activity at 25 µM was greater than 60% under setting [1] and 85% under setting [2]. The remaining activity at 100 µM was 31 to 60% under setting [3] and 37% under setting [4].
In the same order, the values of `O=C(O)[C@H]1CS(=O)(=O)c2c(-c3cccc(C(F)(F)F)c3)c(Cc3cccc4ccccc34)cc(=O)n21` (single isomer, unassigned) [Compound 010b, 7-(naphthalen-1-ylmethyl)-5-oxo-8-(3-(trifluoromethyl)phenyl)-2,3-dihydro-5H-thiazolo[3,2-a]pyridine-3-carboxylic acid 1,1-dioxide] are greater than 60%, 85%, 31 to 60% and 45%.
Taken in the same sequence, the figures for `O=C(O)C1CSc2c(-c3cccc(C(F)(F)F)c3)c(Cc3cccc4ccccc34)cc(=O)n21` (single isomer, unassigned) [Compound 011a, 7-(naphthalen-1-ylmethyl)-5-oxo-8-(3-(trifluoromethyl)phenyl)-2,3-dihydro-5H-thiazolo[3,2-a]pyridine-3-carboxylic acid] were 31 to 60%, 47%, 31 to 60% and 41%.
Taken in the same sequence, the figures for `CCN1CC(C(=O)O)n2c(c(-c3cccc(C(F)(F)F)c3)c(Cc3cccc4ccccc34)cc2=O)S1(=O)=O` (single isomer, unassigned) [Compound 015a, 2-ethyl-8-(naphthalen-1-ylmethyl)-6-oxo-9-(3-(trifluoromethyl)phenyl)-3,4-dihydro-2H,6H-pyrido[1,2-e][1,2,5]thiadiazine-4-carboxylic acid 1,1-dioxide] were 11 to 31%, 25%, 11 to 31% and 17%.
Take `COc1ccc(CN2C[C@@H](C(=O)O)n3c(c(-c4cccc(C(F)(F)F)c4)c(Cc4cccc5ccccc45)cc3=O)S2(=O)=O)cc1` (single isomer, unassigned) [Compound 026a]: the remaining activity at 25 µM reads like this: under setting [1], 31 to 60%; under setting [2], 41%.
As for `CN(C)CCN1CC(C(=O)O)n2c(c(-c3cccc(C(F)(F)F)c3)c(Cc3cccc4ccccc34)cc2=O)S1(=O)=O` (centres unmarked) [Compound 017, 2-(2-(dimethylamino)ethyl)-8-(naphthalen-1-ylmethyl)-6-oxo-9-(3-(trifluoromethyl)phenyl)-3,4-dihydro-2H,6H-pyrido[1,2-e][1,2,5]thiadiazine-4-carboxylic acid 1,1-dioxide], the remaining activity at 25 µM is greater than 60% under setting [1] and 95% under setting [2]. In addition, the remaining activity at 100 µM runs as follows: under setting [3], greater than 60%; under setting [4], 70%.
On to `O=C(O)CN1CC(C(=O)O)n2c(c(-c3cccc(C(F)(F)F)c3)c(Cc3cccc4ccccc34)cc2=O)S1(=O)=O` (centres unmarked) [Compound 018, 2-(carboxymethyl)-8-(naphthalen-1-ylmethyl)-6-oxo-9-(3-(trifluoromethyl)phenyl)-3,4-dihydro-2H,6H-pyrido[1,2-e][1,2,5]thiadiazine-4-carboxylic acid 1,1-dioxide], for which the remaining activity at 25 µM is, setting by setting: under setting [1], greater than 60%; under setting [2], 95%. The remaining activity at 100 µM under setting [3] was in the range of 31 to 60% and the remaining activity at 100 µM under setting [4] was found to be 60%.
On to `O=C(O)C1CSc2c(-c3cccc(C(F)(F)F)c3)c(Cc3cccc4ccccc34)nc(=O)n21` (centres unmarked) [Compound 022, 7-(naphthalen-1-ylmethyl)-5-oxo-8-(3-(trifluoromethyl)phenyl)-2,3-dihydro-5H-thiazolo[3,2-c]pyrimidine-3-carboxylic acid], for which the remaining activity at 25 µM was greater than 60% under setting [1] and 70% under setting [2]. Further, the remaining activity at 100 µM under setting [3] was in the range of 11 to 31% and the remaining activity at 100 µM under setting [4] came to 23%.
With `Nc1c(Cc2cccc3ccccc23)c(-c2cccc(C(F)(F)F)c2)c2n(c1=O)C(C(=O)O)CS2(=O)=O` (centres unmarked) [Compound 023, 6-amino-7-(naphthalen-1-ylmethyl)-5-oxo-8-(3-(trifluoromethyl)phenyl)-2,3-dihydro-5H-thiazolo[3,2-a]pyridine-3-carboxylic acid 1,1-dioxide], the remaining activity at 25 µM is, setting by setting: under setting [1], greater than 60%; under setting [2], 73%. Also, the remaining activity at 100 µM by setting is: under setting [3], 31 to 60%; under setting [4], 34%.
Taken in the same sequence, the figures for `C=CCCN1CC(C(=O)O)n2c(c(-c3cccc(C(F)(F)F)c3)c(Cc3cccc4ccccc34)cc2=O)S1(=O)=O` (centres unmarked) [Compound 024, 2-(but-3-en-1-yl)-8-(naphthalen-1-ylmethyl)-6-oxo-9-(3-(trifluoromethyl)phenyl)-3,4-dihydro-2H,6H-pyrido[1,2-e][1,2,5]thiadiazine-4-carboxylic acid 1,1-dioxide] were 31 to 60%, 35%, 31 to 60% and 39%.
Taken in the same sequence, the figures for `NC(=O)CN1CC(C(=O)O)n2c(c(-c3cccc(C(F)(F)F)c3)c(Cc3cccc4ccccc34)cc2=O)S1(=O)=O` (centres unmarked) [Compound 028, 2-(2-amino-2-oxoethyl)-8-(naphthalen-1-ylmethyl)-6-oxo-9-(3-(trifluoromethyl)phenyl)-3,4-dihydro-2H,6H-pyrido[1,2-e][1,2,5]thiadiazine-4-carboxylic acid 1,1-dioxide] were greater than 60%, 66%, 11 to 31% and 27%.
On to `CN1CC(C(N)=O)n2c(c(-c3cccc(C(F)(F)F)c3)c(Cc3cccc4ccccc34)cc2=O)S1(=O)=O` (centres unmarked) [Compound 030, 2-methyl-8-(naphthalen-1-ylmethyl)-6-oxo-9-(3-(trifluoromethyl)phenyl)-3,4-dihydro-2H,6H-pyrido[1,2-e][1,2,5]thiadiazine-4-carboxamide 1,1-dioxide], for which the remaining activity at 25 µM under setting [1] is greater than 60% and the remaining activity at 25 µM under setting [2] is 82%.
